Measured values taken from patent US5591714A, “Derivatives of A82846” (priority 1994, dated 1997).
Converted amounts (≈) assume the structure as drawn.

Experiments:
[1] = test system: Klebsiella pneumoniae X68; experiment: MIC, standard agar-dilution assay; format: cell-based
Method: (§1) The formula I compounds have in vitro and in vivo activity against Gram-positive pathogenic bacteria. The MIC's were determined using a standard agar-dilution assays.

[2] = test system: Klebsiella pneumoniae KAE; experiment: MIC, standard agar-dilution assay; format: cell-based
Method: as §1

Escherichia coli TEM = experiment: MIC, standard agar-dilution assay; format: cell-based
Method: as §1

[3] = test system: Staphylococcus aureus V41; experiment: MIC, standard agar-dilution assay; format: cell-based
Method: as §1

[4] = test system: Staphylococcus epidermidis EPI270; experiment: MIC, standard agar-dilution assay; format: cell-based
Method: as §1

[5] = test system: Haemophilus influenzae 76; experiment: MIC, standard agar-dilution assay; format: cell-based
Method: as §1

[6] = test system: Staphylococcus aureus X400; experiment: MIC, standard agar-dilution assay; format: cell-based
Method: as §1

[7] = test system: Staphylococcus aureus NRRL X1.1; experiment: MIC, standard agar-dilution assay; format: cell-based
Method: as §1

Escherichia coli EC14 = experiment: MIC, standard agar-dilution assay; format: cell-based
Method: as §1

[8] = test system: Haemophilus influenzae C.L.; experiment: MIC, standard agar-dilution assay; format: cell-based
Method: as §1

[9] = test system: Streptococcus pyogenes C203; experiment: MIC, standard agar-dilution assay; format: cell-based
Method: as §1

Escherichia coli N10 = experiment: MIC, standard agar-dilution assay; format: cell-based
Method: as §1

[10] = test system: Staphylococcus epidermidis 222; experiment: MIC, standard agar-dilution assay; format: cell-based
Method: as §1

[11] = test system: Klebsiella pneumoniae X26; experiment: MIC, standard agar-dilution assay; format: cell-based
Method: as §1

Enterococcus faecium X66 = experiment: MIC, standard agar-dilution assay; format: cell-based
Method: as §1
^b Formerly Streptococcus faecium X66

[12] = test system: Enterococcus faecalis 2041; experiment: MIC, standard agar-dilution assay; format: cell-based
Method: as §1
^c Formerly Streptococcus faecalis 2041

[13] = test system: Staphylococcus aureus S13E; format: cell-based
Method: as §1

[14] = test system: Streptococcus pneumoniae Park 1; format: cell-based
Method: as §1

Streptococcus pyogenes = experiment: In vivo activity, experimentally infected mice (ED50); settings: Streptococcus pyogenes infection; doses administered subcutaneously to mice 1 and 4 hours postinfection

Row | SMILES | MIC [1] [µg/mL] | MIC [2] [µg/mL] | MIC (Escherichia coli TEM) [µg/mL] | MIC [3] | MIC [4] [µg/mL] | MIC [5] [µg/mL] | MIC [6] | MIC [7] | MIC (Escherichia coli EC14) [µg/mL] | MIC [8] [µg/mL] | MIC [9] | MIC (Escherichia coli N10) [µg/mL] | MIC [10] | MIC [11] [µg/mL] | MIC (Enterococcus faecium X66) | MIC [12] | MIC [13] | MIC [14] | ED50 (Streptococcus pyogenes) [mg/kg/2]
1 | CCCCCN(C)[C@H](CC(C)C)C(=O)N[C@H]1C(=O)N[C@@H](CC(N)=O)C(=O)N[C@H]2C(=O)N[C@H]3C(=O)N[C@H](C(=O)N[C@H](C(=O)O)c4cc(O)cc(O)c4-c4cc3ccc4O)[C@H](O[C@H]3C[C@](C)(N)[C@@H](O)[C@H](C)O3)c3ccc(c(Cl)c3)Oc3cc2cc(c3O[C@@H]2O[C@H](CO)[C@@H](O)[C@H](O)[C@H]2O[C@H]2C[C@](C)(N)[C@@H](O)[C@H](C)O2)Oc2ccc(cc2Cl)[C@H]1O [Compound 35] | > 128 | > 128 | > 128 | .25 µg/mL (≈ 0.15 µM) | 1 (≈ 0.601 µM) | > 128 | .5 µg/mL (≈ 0.301 µM) | .5 µg/mL (≈ 0.301 µM) | > 128 | > 128 | .25 µg/mL (≈ 0.15 µM) | > 128 | .5 µg/mL (≈ 0.301 µM) | > 128 | .5 µg/mL (≈ 0.301 µM) | .5 µg/mL (≈ 0.301 µM) | .25 µg/mL (≈ 0.15 µM) | .25 µg/mL (≈ 0.15 µM) | 
2 | CCCCCCCCc1ccc(CNC2(C)CC(OC3C(Oc4c5cc6cc4Oc4ccc(cc4Cl)C(OC4CC(C)(N)C(O)C(C)O4)C4NC(=O)C(NC(=O)C6NC(=O)C(CC(N)=O)NC(=O)C(NC(=O)C(CC(C)C)NC)C(O)c6ccc(c(Cl)c6)O5)c5ccc(O)c(c5)-c5c(O)cc(O)cc5C(C(=O)O)NC4=O)OC(CO)C(O)C3O)OC(C)C2O)cc1 (stereo not drawn) [Compound 54] | > 128 | > 128 | > 128 | 64 µg/mL (≈ 35.7 µM) | 64 (≈ 35.7 µM) | > 128 | 64 µg/mL (≈ 35.7 µM) | 32 µg/mL (≈ 17.8 µM) | > 128 | > 128 | 8 µg/mL (≈ 4.46 µM) | > 128 | 64 µg/mL (≈ 35.7 µM) | > 128 | 64 µg/mL (≈ 35.7 µM) | 64 µg/mL (≈ 35.7 µM) | 64 µg/mL (≈ 35.7 µM) | 4 µg/mL (≈ 2.23 µM) | 0.91
3 | CCCCCCCCOc1ccc(CNC2(C)CC(OC3C(Oc4c5cc6cc4Oc4ccc(cc4Cl)C(OC4CC(C)(N)C(O)C(C)O4)C4NC(=O)C(NC(=O)C6NC(=O)C(CC(N)=O)NC(=O)C(NC(=O)C(CC(C)C)NC)C(O)c6ccc(c(Cl)c6)O5)c5ccc(O)c(c5)-c5c(O)cc(O)cc5C(C(=O)O)NC4=O)OC(CO)C(O)C3O)OC(C)C2O)cc1 (stereo not drawn) [Compound 55] | > 128 | > 128 | > 128 | 4 µg/mL (≈ 2.21 µM) | 16 (≈ 8.84 µM) | > 128 | 16 µg/mL (≈ 8.84 µM) | 8 µg/mL (≈ 4.42 µM) | > 128 | > 128 | 4 µg/mL (≈ 2.21 µM) | > 128 | 8 µg/mL (≈ 4.42 µM) | > 128 | 8 µg/mL (≈ 4.42 µM) | 8 µg/mL (≈ 4.42 µM) | 8 µg/mL (≈ 4.42 µM) | 2 µg/mL (≈ 1.1 µM) | 0.73
4 | CCCCCCC(=O)NC1(C)CC(OC2c3ccc(c(Cl)c3)Oc3cc4cc(c3OC3OC(CO)C(O)C(O)C3OC3CC(C)(N)C(O)C(C)O3)Oc3ccc(cc3Cl)C(O)C(NC(=O)C(CC(C)C)NC)C(=O)NC(CC(N)=O)C(=O)NC4C(=O)NC3C(=O)NC2C(=O)NC(C(=O)O)c2cc(O)cc(O)c2-c2cc3ccc2O)OC(C)C1O (stereo not drawn) [Compound 69] | > 128 | > 128 | > 128 | 2 µg/mL (≈ 1.17 µM) | 8 (≈ 4.69 µM) | > 128 | 4 µg/mL (≈ 2.35 µM) | 1 µg/mL (≈ 0.587 µM) | > 128 | > 128 | 1 µg/mL (≈ 0.587 µM) | > 128 | 2 µg/mL (≈ 1.17 µM) | > 128 | 2 µg/mL (≈ 1.17 µM) | 1 µg/mL (≈ 0.587 µM) | 2 µg/mL (≈ 1.17 µM) | .5 µg/mL (≈ 0.293 µM) | < 0.62
5 | CCCCCNC1(C)CC(OC2c3ccc(cc3)Oc3cc4cc(c3OC3OC(CO)C(O)C(O)C3O)Oc3ccc(cc3Cl)C(O)C(NC(=O)C(CC(C)C)NC)C(=O)NC(CC(N)=O)C(=O)NC4C(=O)NC3C(=O)NC2C(=O)NC(C(=O)O)c2cc(O)cc(O)c2-c2cc3ccc2O)OC(C)C1O (stereo not drawn) [Compound 71] | > 128 | > 128 | > 128 | 2 µg/mL (≈ 1.35 µM) | 1 (≈ 0.673 µM) | > 128 | 4 µg/mL (≈ 2.69 µM) | 2 µg/mL (≈ 1.35 µM) | > 128 | > 128 | 2 µg/mL (≈ 1.35 µM) | > 128 | 4 µg/mL (≈ 2.69 µM) | > 128 | 8 µg/mL (≈ 5.39 µM) | 8 µg/mL (≈ 5.39 µM) | 2 µg/mL (≈ 1.35 µM) | 2 µg/mL (≈ 1.35 µM) | 
6 | CCCCCNC1(C)CC(OC2c3ccc(cc3)Oc3cc4cc(c3O)Oc3ccc(cc3Cl)C(O)C(NC(=O)C(CC(C)C)NC)C(=O)NC(CC(N)=O)C(=O)NC4C(=O)NC3C(=O)NC2C(=O)NC(C(=O)O)c2cc(O)cc(O)c2-c2cc3ccc2O)OC(C)C1O (stereo not drawn) [Compound 74] | > 128 | > 128 | > 128 | 4 µg/mL (≈ 3.02 µM) | 2 (≈ 1.51 µM) | > 128 | 4 µg/mL (≈ 3.02 µM) | 4 µg/mL (≈ 3.02 µM) | > 128 | > 128 | 4 µg/mL (≈ 3.02 µM) | > 128 | 4 µg/mL (≈ 3.02 µM) | > 128 | 8 µg/mL (≈ 6.05 µM) | 8 µg/mL (≈ 6.05 µM) | 4 µg/mL (≈ 3.02 µM) | 4 µg/mL (≈ 3.02 µM) | 
7 | CCCCCNC1(C)CC(OC2c3ccc(c(Cl)c3)Oc3cc4cc(c3OC3OC(CO)C(O)C(O)C3O)Oc3ccc(cc3Cl)C(O)C(NC(=O)C(CC(C)C)NC)C(=O)NC(CC(N)=O)C(=O)NC4C(=O)NC3C(=O)NC2C(=O)NC(C(=O)O)c2cc(O)cc(O)c2-c2cc3ccc2O)OC(C)C1O (stereo not drawn) [Compound 77] | > 128 | > 128 | > 128 | .5 µg/mL (≈ 0.329 µM) | 8 (≈ 5.27 µM) | 128 (≈ 84.2 µM) | 1 µg/mL (≈ 0.658 µM) | .5 µg/mL (≈ 0.329 µM) | > 128 | 128 (≈ 84.2 µM) | .25 µg/mL (≈ 0.165 µM) | > 128 | 1 µg/mL (≈ 0.658 µM) | > 128 | 2 µg/mL (≈ 1.32 µM) | 2 µg/mL (≈ 1.32 µM) | .5 µg/mL (≈ 0.329 µM) | .5 µg/mL (≈ 0.329 µM) | 
